test: nhibition of gamma secretase-mediated Abeta42 production by cell based assay; settings: not given

Row | SMILES | IC50 [nM]
1 | O=S(=O)(N[C@@H]1CC[C@@]2(S(=O)(=O)c3ccc(Cl)cc3)c3c(F)ccc(F)c3OC[C@@]2(O)C1)C(F)(F)F | 33
2 | O=S(=O)(N[C@@H]1CC[C@@]2(S(=O)(=O)c3ccc(Cl)cc3)c3c(F)ccc(F)c3OC[C@@]2(O)C1)C1CC1 | 9
3 | O=S(=O)(N[C@@H]1CC[C@@]2(S(=O)(=O)c3ccc(C(F)(F)F)cc3)c3c(F)ccc(F)c3OC[C@@]2(O)C1)C(F)(F)F | 51

test: nhibition of gamma secretase-mediated Abeta40 production by cell based assay; settings: not given

Row | SMILES | IC50 [nM]
4 | O=S(=O)(N[C@@H]1CC[C@@]2(S(=O)(=O)c3ccc(Cl)cc3)c3c(F)ccc(F)c3OC[C@@]2(O)C1)C(F)(F)F | 11
5 | O=S(=O)(N[C@@H]1CC[C@@]2(S(=O)(=O)c3ccc(Cl)cc3)c3c(F)ccc(F)c3OC[C@@]2(O)C1)C1CC1 | 3
6 | O=S(=O)(N[C@@H]1CC[C@@]2(S(=O)(=O)c3ccc(C(F)(F)F)cc3)c3c(F)ccc(F)c3OC[C@@]2(O)C1)C(F)(F)F | 80

test: Inhibition of gamma secretase-mediated Abeta40 production; settings: not given

Row | SMILES | IC50 [nM]
7 | O=S(=O)(N[C@@H]1CC[C@@]2(S(=O)(=O)c3ccc(Cl)cc3)c3c(F)ccc(F)c3OC[C@H]2C1)C(F)(F)F | 27
8 | O=S(=O)(NCCO[C@]12CCCC[C@@]1(S(=O)(=O)c1ccc(Cl)cc1)c1c(F)ccc(F)c1OC2)C(F)(F)F | 295
9 | CCSCCO[C@]12CCCC[C@@]1(S(=O)(=O)c1ccc(Cl)cc1)c1c(F)ccc(F)c1OC2 | 170
10 | CCS(=O)(=O)CCO[C@]12CCCC[C@@]1(S(=O)(=O)c1ccc(Cl)cc1)c1c(F)ccc(F)c1OC2 | 15
11 | CC(C)SCCO[C@]12CCCC[C@@]1(S(=O)(=O)c1ccc(Cl)cc1)c1c(F)ccc(F)c1OC2 | 180
12 | CC(C)S(=O)(=O)CCO[C@]12CCCC[C@@]1(S(=O)(=O)c1ccc(Cl)cc1)c1c(F)ccc(F)c1OC2 | 8
13 | CS(=O)(=O)CCO[C@]12CCCC[C@@]1(S(=O)(=O)c1ccc(Cl)cc1)c1c(F)ccc(F)c1OC2 | 9
14 | CNS(=O)(=O)CCO[C@]12CCCC[C@@]1(S(=O)(=O)c1ccc(Cl)cc1)c1c(F)ccc(F)c1OC2 | 37
15 | CN(C)S(=O)(=O)CCO[C@]12CCCC[C@@]1(S(=O)(=O)c1ccc(Cl)cc1)c1c(F)ccc(F)c1OC2 | 50
16 | NCCO[C@]12CCCC[C@@]1(S(=O)(=O)c1ccc(Cl)cc1)c1c(F)ccc(F)c1OC2 | 12
17 | CNCCO[C@]12CCCC[C@@]1(S(=O)(=O)c1ccc(Cl)cc1)c1c(F)ccc(F)c1OC2 | 40
18 | CN(C)CCO[C@]12CCCC[C@@]1(S(=O)(=O)c1ccc(Cl)cc1)c1c(F)ccc(F)c1OC2 | 31
19 | CS(=O)(=O)NCCO[C@]12CCCC[C@@]1(S(=O)(=O)c1ccc(Cl)cc1)c1c(F)ccc(F)c1OC2 | 26
20 | O=S(=O)(c1ccc(Cl)cc1)[C@@]12CCC3(C[C@]1(O)COc1c(F)ccc(F)c12)OCCO3 | 2900
21 | O=C1CC[C@@]2(S(=O)(=O)c3ccc(Cl)cc3)c3c(F)ccc(F)c3OC[C@@]2(O)C1 | 21
22 | O=S(=O)(N[C@@H]1CC[C@@]2(S(=O)(=O)c3ccc(Cl)cc3)c3c(F)ccc(F)c3OC[C@@]2(O)C1)C(F)(F)F | 21
23 | O=C1CC[C@@]2(S(=O)(=O)c3ccc(Cl)cc3)c3c(F)ccc(F)c3OC[C@]2(O)C1 | 3000
24 | O=S(=O)(c1ccc(Cl)cc1)[C@@]12CC[C@H](O)C[C@]1(O)COc1c(F)ccc(F)c12 | 363

Row | SMILES | IC50 [nM]
25 | O=S(=O)(c1ccc(Cl)cc1)[C@@]12CC[C@@H](O)C[C@]1(O)COc1c(F)ccc(F)c12 | 28
26 | O=C1CC[C@@]2(S(=O)(=O)c3ccc(C(F)(F)F)cc3)c3c(F)ccc(F)c3OC[C@@]2(O)C1 | 53
27 | O=S(=O)(c1ccc(C(F)(F)F)cc1)[C@@]12CC[C@@H](O)C[C@]1(O)COc1c(F)ccc(F)c12 | 136
28 | O=C1CC[C@@]2(S(=O)(=O)c3ccc(Cl)cc3)c3c(F)ccc(F)c3OC[C@H]2C1 | 13
29 | O=S(=O)(c1ccc(Cl)cc1)[C@@]12CCCC[C@@H]1COc1c(F)ccc(F)c12 | 22
30 | CCS(=O)(=O)CCO[C@@]12COc3c(F)ccc(F)c3[C@]1(S(=O)(=O)c1ccc(Cl)cc1)CCC1(C2)OCCO1 | 1300
31 | CCS(=O)(=O)CCO[C@@]12COc3c(F)ccc(F)c3[C@]1(S(=O)(=O)c1ccc(Cl)cc1)CCC(=O)C2 | 160
32 | CCS(=O)(=O)CCO[C@@]12COc3c(F)ccc(F)c3[C@]1(S(=O)(=O)c1ccc(Cl)cc1)CC[C@@H](O)C2 | 87
33 | CC(C)S(=O)(=O)CCO[C@@]12COc3c(F)ccc(F)c3[C@]1(S(=O)(=O)c1ccc(Cl)cc1)CCC1(C2)OCCO1 | 940
34 | CC(C)S(=O)(=O)CCO[C@@]12COc3c(F)ccc(F)c3[C@]1(S(=O)(=O)c1ccc(Cl)cc1)CCC(=O)C2 | 130
35 | CC(C)S(=O)(=O)CCO[C@@]12COc3c(F)ccc(F)c3[C@]1(S(=O)(=O)c1ccc(Cl)cc1)CC[C@@H](O)C2 | 52
36 | O=S(=O)(N[C@@H]1CC[C@@]2(S(=O)(=O)c3ccc(Cl)cc3)c3c(F)ccc(F)c3OC[C@@]2(O)C1)C(F)F | 68
37 | O=S(=O)(CF)N[C@@H]1CC[C@@]2(S(=O)(=O)c3ccc(Cl)cc3)c3c(F)ccc(F)c3OC[C@@]2(O)C1 | 164
38 | O=S(=O)(N[C@@H]1CC[C@@]2(S(=O)(=O)c3ccc(Cl)cc3)c3c(F)ccc(F)c3OC[C@@]2(O)C1)C1CC1 | 29
39 | O=S(=O)(N[C@@H]1CC[C@@]2(S(=O)(=O)c3ccc(Cl)cc3)c3c(F)ccc(F)c3OC[C@@]2(O)C1)C1CCC1 | 212
40 | O=S(=O)(N[C@@H]1CC[C@@]2(S(=O)(=O)c3ccc(C(F)(F)F)cc3)c3c(F)ccc(F)c3OC[C@@]2(O)C1)C(F)(F)F | 23
41 | O=S(=O)(N[C@@H]1CC[C@@]2(S(=O)(=O)c3ccc(C(F)(F)F)cc3)c3c(F)ccc(F)c3OC[C@@]2(O)C1)C1CC1 | 173
42 | O=S(=O)(NCCO[C@@]12COc3c(F)ccc(F)c3[C@]1(S(=O)(=O)c1ccc(Cl)cc1)CC[C@@H](O)C2)C(F)(F)F | 4100

test: Dissociation constant, pKa of the compound in DMSO; type: physicochemical; settings: not given

Row | SMILES | pKa
43 | CS(N)(=O)=O [METHANESULFONAMIDE] | 17.5

same assay, conditions: DMSO; read-out: pKa

Row | SMILES | pKa
44 | NS(=O)(=O)C(F)(F)F [TRIFLUOROMETHANESULFONAMIDE] | 9.7
